{"source": "patent US7262210B2", "about": "“Fluorinated pyridine N-oxide thrombin modulators and process for N-oxidation of nitrogen containing heteroaryls” (Janssen Pharmaceutica N.V., priority 2005, dated 2007)", "molecular_target": "T1, Human α-thrombin (Homo sapiens, UniProt P00734)", "T1 construct": "Human α-thrombin (Enzyme Research Laboratories HT1002a); purchased Enzyme Research Laboratories (South Bend, Ind.) HT1002a", "test": "In vitro inhibition of purified enzyme; kinetic analysis by chromogenic substrates", "type": "biochemical", "settings": "substrate SucAAPR pNA 100 uM, Km=320 μM, Ki factor=0.76; 37° C., pH 7.5, 4% DMSO; thrombin 1.1 nM; Ki=IC50×Ki factor", "procedure": "In Vitro Inhibition of Purified Enzyme\nReagents: All buffer salts were obtained from Sigma Chemical Company (St. Louis, Mo.), and were of the highest purity available.\nHuman α-thrombin, was obtained from Enzyme Research Laboratories (South Bend, Ind.).\nKinetic Analysis by Chromogenic Substrates\nCompounds were assessed for their inhibitory activity toward Thrombin by kinetic analysis using para-nitroaniline chromogenic substrates monitored at 405 nm. The assay buffer employed was 50 mM HEPES, pH 7.5, 200 mM NaCl, and fresh 0.05% n-octyl β-d-glucopyranoside. DMSO was present at a final concentration of 4%, derived from the substrate and inhibitory compound stock solutions. […] Reactions were initiated by addition of 10 μL protease, and increase in absorbance due to proteolytic cleavage of substrate was kinetically monitored at 37° C., 405 nm with a Molecular Devices Spectramax 340 platereader. Initial velocities were determined by analysis of the initial linear portion of the reactions. Plots of vo/vi vs. inhibitor concentration, where vo=velocity without inhibitor, and vi=inhibited velocity, were fit to a linear regression line, and the IC50 was determined from the reciprocal of the slope. […]", "note": "Where a name gives a salt, the structure may show the parent alone.", "data": [{"smiles": "N#Cc1cc(F)c(NCC(F)(F)c2ccccn2)[n+]([O-])c1CC(=O)NCc1ncccc1F", "note": "[Example 1, 2-[3-Cyano-6-(2,2-difluoro-2-pyridin-2-yl-ethylamino)-5-fluoro-1-oxy-pyridin-2-yl]-N-(3-fluoro-pyridin-2-ylmethyl)-acetamide dihydrochloride]", "values": [{"measurement": "Ki", "result": "9.8 to 11", "unit": "nM"}]}]}
